Experimental findings from patent EP2311818B1, “Combination of a 5-phenylthiazole compound as PI3 kinase inhibitor with an antiinflammatory, bronchodilatory or antihistamine drug” (Novartis AG, priority 2003, dated 2003) are described below.

T1 sequence (P48736 38-1102): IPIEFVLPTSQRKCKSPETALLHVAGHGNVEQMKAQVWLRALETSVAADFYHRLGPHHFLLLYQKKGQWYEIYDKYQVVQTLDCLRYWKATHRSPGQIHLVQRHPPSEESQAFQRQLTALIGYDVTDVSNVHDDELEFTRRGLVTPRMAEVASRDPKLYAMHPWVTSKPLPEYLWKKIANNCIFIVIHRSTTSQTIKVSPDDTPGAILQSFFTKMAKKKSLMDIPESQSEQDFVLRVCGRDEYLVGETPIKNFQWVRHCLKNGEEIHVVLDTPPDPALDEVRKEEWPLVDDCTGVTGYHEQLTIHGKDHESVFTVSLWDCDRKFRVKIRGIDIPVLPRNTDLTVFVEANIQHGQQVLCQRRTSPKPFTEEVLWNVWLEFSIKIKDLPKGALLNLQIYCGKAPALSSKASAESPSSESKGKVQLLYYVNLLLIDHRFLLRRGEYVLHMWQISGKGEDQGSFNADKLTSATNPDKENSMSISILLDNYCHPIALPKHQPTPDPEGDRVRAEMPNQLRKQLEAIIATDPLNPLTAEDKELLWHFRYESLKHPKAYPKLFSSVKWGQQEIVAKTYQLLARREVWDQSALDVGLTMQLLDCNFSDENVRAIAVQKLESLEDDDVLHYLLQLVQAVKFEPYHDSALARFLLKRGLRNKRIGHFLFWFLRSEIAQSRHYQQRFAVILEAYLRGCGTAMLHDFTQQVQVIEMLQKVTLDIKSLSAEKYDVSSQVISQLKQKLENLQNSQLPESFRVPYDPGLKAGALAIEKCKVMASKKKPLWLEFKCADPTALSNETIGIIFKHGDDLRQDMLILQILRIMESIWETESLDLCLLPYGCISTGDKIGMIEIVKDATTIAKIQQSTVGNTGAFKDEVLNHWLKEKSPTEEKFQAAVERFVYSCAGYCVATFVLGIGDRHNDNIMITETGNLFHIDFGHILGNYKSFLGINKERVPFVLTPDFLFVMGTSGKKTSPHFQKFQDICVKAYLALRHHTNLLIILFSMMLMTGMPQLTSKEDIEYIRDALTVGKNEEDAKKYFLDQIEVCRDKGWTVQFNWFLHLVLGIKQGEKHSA

This assay addresses T1, recombinant GST-p110y (Homo sapiens, UniProt P48736).
T1 construct: Residues 38-1102 of human P13Ky are subcloned into the BamH1 and EcoR1 sites; made in house; host or cells: Sf9 (Spodoptera frugiperda) insect cells, baculovirus
The experiment in a line: in vitro PI3Kγ kinase assay (Scintillation Proximity Assay, transfer of terminal phosphate of ATP to phosphatidylinositol). It counts as biochemical. Conditions: 12.5 µM ATP, 15 µg/ml phosphatidylinositol, room temperature, 60 minutes. As to the method:
To express the recombinant protein, Sf9 (Spodoptera frugiperda 9) insect cells are routinely maintained at densities between 3 X 10^5 and 3 X 10^6 cells/ml in serum containing TNMFH medium (Sigma). Sf9 cells, at a density of 2 X 10^6 are infected with human GST-P13KγΔ34 baculovirus at a multiplicity of infection (m.o.i.) of 1 for 72 hours. The infected cells are harvested by centrifugation at 1400 g for 4 minutes at 4° C and the cell pellets are frozen at -80° C. […] The unbound flow through sample is collected by centrifugation at 1000g for 5 minutes at 4° C using a DENLEY™ centrifuge. The 1 ml GST resin containing bound material is transferred to a 15 ml FALCON™ centrifuge tube for subsequent washing and elution steps. Firstly a series of 3 cycles of washings (mixing by gentle inversion) is performed with 15 ml ice cold wash Buffer A (50 mM Tris-HCl pH 7.5, 1 % Triton X-100, 2 mM DTT) interspersed with centrifugation at 1000g for 5 minutes at 4° C. A final single wash step is performed with 15 ml ice cold wash Buffer B (50mM Tris-HCl pH 7.5, 2 mM DTT) and then centrifuged at 1000g for 5 minutes at 4° C. The washed GST resin is finally eluted with 4 cycles of 1 ml ice cold elution buffer (50 mM Tris-HCl pH 7.5, 10 mM reduced glutathione, 2 mM DTT, 150 mM NaCl, 1 mM NaF, 50% ethylene glycol and protease inhibitors) interspersed with centrifugation at 1000g for 5 minutes at 4° C.. Samples are aliquoted and stored at -20° C.
An in vitro kinase assay was established that measures the transfer of the terminal phosphate of adenosine triphosphate to phosphatidylinositol. The kinase reaction is performed in a white 96 well microtitre plate as a Scintillation Proximity Assay. […] The reaction is started by the addition of 20 µl of enzyme mix (40 mM Tris, 200 mM NaCl, 2 mM EGTA containing recombinant GST-p110y).
On to `CC(=O)Nc1nc(C)c(-c2cc(Br)c(S(N)(=O)=O)c(Br)c2)s1` [Example 8, N-[5-(3.5-Dibromo-4-sulfamoyl-phenyl)-4-methyl-thiazol-2-yl]-acetamide], for which the IC50 was found to be 9 nM.

Consider `CC(=O)Nc1nc(C)c(-c2ccc(Cl)c(S(C)(=O)=O)c2)s1` [Example 48, N-[5-(4-Chloro-3-methanesulfonyl-phenyl)-4-methyl-thiazol-2-yl]-acetamide], for which the IC50 was determined as 18 nM.

Take `CC(=O)Nc1nc(C)c(-c2ccc(S(C)(=O)=O)c(-n3ccnc3)c2)s1` [Example 80, N-[5-(3-Imidazol-1-yl-4-methanesulfonyl-phenyl)-4-methyl-thiazol-2-yl]-acetamide]: the IC50 was 13 nM.

Turning to `Cc1nc(NC(N)=O)sc1-c1ccc(Cl)c(S(C)(=O)=O)c1` [Example 138, [5-(4-chloro-3-methanesulfonyl-phenyl)-4-methyl-thiazol-2-yl]-urea], the IC50 is 5 nM.

Take `CCOC(=O)CCNC(=O)Nc1nc(C)c(-c2ccc(S(C)(=O)=O)c(F)c2)s1` [Example 165, 3-{3-[5-(3-Fluoro-4-methanesulfonyl-phenyl)-4-met4l-thiazol-2-yl]-ureido}-propionic acid ethyl ester]: the IC50 is 19 nM.

Take `CCc1cnc(CCNC(=O)Nc2nc(C)c(-c3ccc(S(C)(=O)=O)c(F)c3)s2)o1` [Example 178]: the IC50 turned out to be 40 nM.
